Data: ChEMBL document CHEMBL1201862, “PubChem BioAssay data set” (2004)
Calls of active or inactive are those of the source. For most assays here, no stated cut-off is given here; in the data, actives have a measured IC50 and inactives only a lower limit.

Assays:
Caspase-3 = target: T1, Caspase-3 (Homo sapiens, UniProt P42574); assay type: functional;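 further: Dose-response selectivity test against caspase-3 for candidate inhibitors of sentrin-specific proteases (SENPs)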
T1 sequence (P42574 whole entry): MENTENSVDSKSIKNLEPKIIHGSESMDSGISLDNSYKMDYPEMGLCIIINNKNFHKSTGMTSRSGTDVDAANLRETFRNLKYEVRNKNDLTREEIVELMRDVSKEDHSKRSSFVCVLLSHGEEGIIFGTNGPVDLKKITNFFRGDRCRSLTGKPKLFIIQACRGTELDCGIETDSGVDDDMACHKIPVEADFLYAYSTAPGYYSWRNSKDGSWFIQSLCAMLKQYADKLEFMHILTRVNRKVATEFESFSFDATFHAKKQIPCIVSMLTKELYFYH

[1] = target: T2, Sentrin-specific protease 7 (Homo sapiens, UniProt Q9BQF6); assay type: functional;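 further: Luminescence-based dose-response confirmation of ultra-high-throughput screening hits, measuring inhibition of SENP7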
T2 sequence (Q9BQF6 whole entry): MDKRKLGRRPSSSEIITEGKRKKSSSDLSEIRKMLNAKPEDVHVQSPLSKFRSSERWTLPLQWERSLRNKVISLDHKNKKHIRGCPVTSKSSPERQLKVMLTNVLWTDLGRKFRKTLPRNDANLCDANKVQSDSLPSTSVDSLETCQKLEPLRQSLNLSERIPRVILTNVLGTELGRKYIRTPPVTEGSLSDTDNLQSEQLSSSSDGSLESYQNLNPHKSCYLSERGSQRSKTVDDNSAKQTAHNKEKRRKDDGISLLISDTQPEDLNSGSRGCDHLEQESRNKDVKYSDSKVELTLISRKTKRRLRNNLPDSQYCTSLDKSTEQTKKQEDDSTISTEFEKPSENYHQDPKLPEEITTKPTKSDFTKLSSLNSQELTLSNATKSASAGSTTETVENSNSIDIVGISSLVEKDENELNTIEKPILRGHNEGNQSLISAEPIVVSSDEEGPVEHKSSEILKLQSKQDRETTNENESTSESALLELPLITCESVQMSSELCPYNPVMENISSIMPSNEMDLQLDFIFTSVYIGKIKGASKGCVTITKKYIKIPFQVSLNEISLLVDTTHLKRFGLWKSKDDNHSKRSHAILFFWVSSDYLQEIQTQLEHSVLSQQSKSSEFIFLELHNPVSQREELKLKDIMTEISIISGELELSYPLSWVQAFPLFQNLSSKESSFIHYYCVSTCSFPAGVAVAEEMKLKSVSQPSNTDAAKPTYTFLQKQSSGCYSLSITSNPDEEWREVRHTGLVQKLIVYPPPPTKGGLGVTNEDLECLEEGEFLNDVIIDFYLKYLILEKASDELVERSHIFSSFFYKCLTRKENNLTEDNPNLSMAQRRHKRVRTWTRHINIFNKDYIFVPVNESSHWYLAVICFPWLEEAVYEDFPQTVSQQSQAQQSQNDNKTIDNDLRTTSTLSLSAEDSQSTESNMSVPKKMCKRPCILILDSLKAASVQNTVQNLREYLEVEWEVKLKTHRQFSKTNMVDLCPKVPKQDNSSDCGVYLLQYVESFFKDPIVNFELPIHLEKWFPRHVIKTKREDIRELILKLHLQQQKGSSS

[2] = target: T3, Sentrin-specific protease 6 (Homo sapiens, UniProt Q9GZR1); assay type: functional;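 further: Luminescence-based dose-response confirmatory assay of SENP6 inhibition, following up an ultra-high-throughput screen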
T3 sequence (Q9GZR1 whole entry): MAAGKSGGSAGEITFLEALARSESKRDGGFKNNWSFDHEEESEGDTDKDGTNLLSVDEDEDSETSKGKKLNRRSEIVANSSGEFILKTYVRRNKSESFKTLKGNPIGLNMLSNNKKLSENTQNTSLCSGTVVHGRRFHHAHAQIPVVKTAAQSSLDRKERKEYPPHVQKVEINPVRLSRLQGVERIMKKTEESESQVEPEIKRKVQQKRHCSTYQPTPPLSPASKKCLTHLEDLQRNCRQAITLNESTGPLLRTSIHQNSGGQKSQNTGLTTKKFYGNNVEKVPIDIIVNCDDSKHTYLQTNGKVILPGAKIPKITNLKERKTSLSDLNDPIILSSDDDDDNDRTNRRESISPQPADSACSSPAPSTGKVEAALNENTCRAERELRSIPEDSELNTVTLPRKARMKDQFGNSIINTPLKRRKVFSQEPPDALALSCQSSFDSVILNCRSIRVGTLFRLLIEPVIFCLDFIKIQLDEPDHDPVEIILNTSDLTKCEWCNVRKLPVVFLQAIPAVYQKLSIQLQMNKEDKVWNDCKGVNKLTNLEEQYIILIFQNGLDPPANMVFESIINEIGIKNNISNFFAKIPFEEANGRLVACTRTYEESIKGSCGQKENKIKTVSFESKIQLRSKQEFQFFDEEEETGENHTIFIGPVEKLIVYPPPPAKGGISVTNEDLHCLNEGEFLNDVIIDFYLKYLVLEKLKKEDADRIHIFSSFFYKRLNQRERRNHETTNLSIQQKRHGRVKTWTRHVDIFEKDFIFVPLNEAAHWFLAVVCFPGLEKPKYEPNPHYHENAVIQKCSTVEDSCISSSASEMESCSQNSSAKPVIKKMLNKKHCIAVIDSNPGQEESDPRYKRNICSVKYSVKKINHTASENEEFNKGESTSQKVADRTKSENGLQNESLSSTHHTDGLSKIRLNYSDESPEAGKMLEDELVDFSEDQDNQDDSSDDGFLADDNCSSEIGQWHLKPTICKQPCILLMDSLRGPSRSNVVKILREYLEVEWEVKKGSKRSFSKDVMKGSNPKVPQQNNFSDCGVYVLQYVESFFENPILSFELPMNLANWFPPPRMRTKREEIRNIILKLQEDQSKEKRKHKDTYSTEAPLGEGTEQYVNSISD

[3] = target: T4, Sentrin-specific protease 8 (Homo sapiens, UniProt Q96LD8); assay type: functional;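 further: luminescence read-out of SENP8 inhibition, dose-response confirmation following an ultra-high-throughput screen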
T4 sequence (Q96LD8 whole entry): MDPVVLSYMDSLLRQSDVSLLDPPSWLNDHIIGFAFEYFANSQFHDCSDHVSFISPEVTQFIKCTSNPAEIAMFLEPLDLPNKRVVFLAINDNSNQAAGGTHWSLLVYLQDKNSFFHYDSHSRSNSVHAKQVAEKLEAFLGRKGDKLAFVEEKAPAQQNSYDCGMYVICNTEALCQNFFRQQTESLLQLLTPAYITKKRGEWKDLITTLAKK

[4] = target: T5, Corticotropin-releasing factor receptor 2/Corticotropin-releasing factor-binding protein (Homo sapiens, UniProt P24387+Q13324); assay: Dose Response confirmation of uHTS hits for small molecule antagonists of the CRF-binding protein and CRF-R2 receptor complex.; assay type: functional; details: read-out: IC50_Mean
T5 sequence (Q13324 whole entry): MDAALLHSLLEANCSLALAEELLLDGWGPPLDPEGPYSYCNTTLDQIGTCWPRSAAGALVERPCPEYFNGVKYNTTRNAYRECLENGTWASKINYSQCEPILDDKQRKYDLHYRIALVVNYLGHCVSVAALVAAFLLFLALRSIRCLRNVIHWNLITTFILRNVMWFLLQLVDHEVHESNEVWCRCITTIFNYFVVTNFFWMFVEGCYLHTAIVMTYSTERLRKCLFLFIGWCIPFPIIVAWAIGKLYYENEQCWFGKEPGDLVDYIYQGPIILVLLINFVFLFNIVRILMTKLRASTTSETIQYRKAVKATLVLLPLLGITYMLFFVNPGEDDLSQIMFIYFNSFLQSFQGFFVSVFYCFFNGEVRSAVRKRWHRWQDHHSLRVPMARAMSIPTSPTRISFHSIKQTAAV
T5 sequence (P24387 whole entry): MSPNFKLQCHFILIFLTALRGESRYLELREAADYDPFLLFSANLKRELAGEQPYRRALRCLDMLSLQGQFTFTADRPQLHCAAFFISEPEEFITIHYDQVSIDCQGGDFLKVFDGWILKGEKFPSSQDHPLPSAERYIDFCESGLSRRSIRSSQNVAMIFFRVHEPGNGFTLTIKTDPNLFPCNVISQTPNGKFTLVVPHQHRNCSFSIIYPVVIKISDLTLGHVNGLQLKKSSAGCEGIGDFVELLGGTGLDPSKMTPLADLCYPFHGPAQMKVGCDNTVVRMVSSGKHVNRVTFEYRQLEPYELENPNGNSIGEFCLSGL

[5] = target: T5, Corticotropin-releasing factor receptor 2/Corticotropin-releasing factor-binding protein; assay: activators of CRF receptor 2 with binding protein – uHTS hits, confirmation (AID 602473); assay type: functional; details: read-out: EC50_Mean
Cytochrome P450 2D6 = Cytochrome P450 2D6 (Homo sapiens, UniProt P10635);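 further: CYP2D6 member of a cytochrome P450 panel assay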
Cytochrome P450 2D6, sequence (P10635 whole entry): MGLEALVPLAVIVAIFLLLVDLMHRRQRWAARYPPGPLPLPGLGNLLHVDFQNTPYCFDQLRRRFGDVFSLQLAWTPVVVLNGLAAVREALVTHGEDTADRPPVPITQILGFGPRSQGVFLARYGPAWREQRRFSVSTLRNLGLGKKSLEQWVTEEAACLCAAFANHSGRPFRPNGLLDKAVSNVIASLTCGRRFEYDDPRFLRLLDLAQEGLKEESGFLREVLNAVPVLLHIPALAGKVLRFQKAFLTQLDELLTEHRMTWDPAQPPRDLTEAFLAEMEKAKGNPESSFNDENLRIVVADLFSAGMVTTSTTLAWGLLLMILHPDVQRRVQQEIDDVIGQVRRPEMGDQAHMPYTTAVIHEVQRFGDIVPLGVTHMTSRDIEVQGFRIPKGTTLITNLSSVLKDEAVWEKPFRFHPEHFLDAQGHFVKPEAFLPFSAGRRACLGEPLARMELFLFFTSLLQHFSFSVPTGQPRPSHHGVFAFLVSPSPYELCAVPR

Cytochrome P450 2C9 = Cytochrome P450 2C9 (Homo sapiens, UniProt P11712)
Cytochrome P450 2C9, sequence (P11712 whole entry): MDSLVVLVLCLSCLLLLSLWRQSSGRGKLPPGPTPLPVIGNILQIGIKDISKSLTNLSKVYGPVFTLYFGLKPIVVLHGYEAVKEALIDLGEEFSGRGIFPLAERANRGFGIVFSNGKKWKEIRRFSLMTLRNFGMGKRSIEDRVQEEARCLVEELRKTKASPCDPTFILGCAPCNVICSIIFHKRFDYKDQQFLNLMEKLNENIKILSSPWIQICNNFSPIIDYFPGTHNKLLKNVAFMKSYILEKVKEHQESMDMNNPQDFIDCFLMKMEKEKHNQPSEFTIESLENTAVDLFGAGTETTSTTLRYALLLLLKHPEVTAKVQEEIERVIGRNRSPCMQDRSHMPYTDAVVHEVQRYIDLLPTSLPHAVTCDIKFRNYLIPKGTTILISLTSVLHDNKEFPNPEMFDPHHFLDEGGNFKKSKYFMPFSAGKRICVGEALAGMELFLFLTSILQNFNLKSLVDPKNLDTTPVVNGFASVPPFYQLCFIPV

[6] = target: T6, Heat shock factor protein 1 (Mus musculus, UniProt P38532); assay: enhancement of HSF1-driven luciferase signal – cell-based, NIH3T3, luminescence, dose retest, confirmation (AID 435004); assay type: functional;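 further: stress induced by proteasome inhibitor MG132 added 30 min after compound; luciferase reporter driven by HSF1 response element in NIH3T3 cells; actives raise luminescence as potentiators of the MG132 stress response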
T6 sequence (P38532 whole entry): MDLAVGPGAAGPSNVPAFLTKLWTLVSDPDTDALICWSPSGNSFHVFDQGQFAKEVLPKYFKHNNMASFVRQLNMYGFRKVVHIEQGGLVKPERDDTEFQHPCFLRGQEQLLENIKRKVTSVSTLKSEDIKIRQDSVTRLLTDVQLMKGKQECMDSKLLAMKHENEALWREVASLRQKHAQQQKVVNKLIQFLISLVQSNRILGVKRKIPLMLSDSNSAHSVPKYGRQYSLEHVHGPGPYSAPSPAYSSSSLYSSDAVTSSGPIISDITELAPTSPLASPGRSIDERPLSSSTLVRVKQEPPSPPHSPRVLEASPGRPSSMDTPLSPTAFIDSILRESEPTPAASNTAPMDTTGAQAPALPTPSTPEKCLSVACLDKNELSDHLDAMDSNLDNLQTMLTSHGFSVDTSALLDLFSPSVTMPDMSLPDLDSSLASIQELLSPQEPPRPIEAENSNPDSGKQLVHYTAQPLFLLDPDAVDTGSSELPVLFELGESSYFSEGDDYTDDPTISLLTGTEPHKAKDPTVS

| IC50 (Caspase-3) | IC50 [1] | IC50 [2] | IC50 [4] | EC50 [5] | AC50 (Cytochrome P450 2D6) | AC50 (Cytochrome P450 2C9) | EC50 [6] | SMILES | IC50 [3] |
| --- | --- | --- | --- | --- | --- | --- | --- | --- | --- |
| 5.66 µM (active) | 2.3 µM (active) | 3.22 µM (active) | – | – | – | – | – | O=C(Nc1ccc(Cl)cn1)c1ccc(Oc2ccccc2)cc1 | 3.37 µM (active) |
| 17.9 µM (active) | 7.65 µM (active) | 20.3 µM (active) | – | – | – | – | – | COC(=O)c1sccc1NC(=O)Cc1ccc(Br)cc1 | 24.8 µM (active) |
| 44.2 µM (active) | 4.46 µM (active) | 10.3 µM (active) | – | – | – | – | – | COc1ccc(-c2cc(-c3cc(C)ccc3O)n[nH]2)cc1 | 9.6 µM (active) |
| 13.3 µM (active) | 8.96 µM (active) | 11.5 µM (active) | – | – | – | – | – | COc1ccc(C(=O)O/N=C(\N)c2ccc(OC)c(OC)c2)cc1 | 11.5 µM (active) |
| 39 µM (active) | 11.4 µM (active) | 45.3 µM (active) | – | – | – | – | – | CC(=O)c1c(C)oc2ccc(OCc3ccccc3)cc12 | 75.8 µM (active) |
| 2.23 µM (active) | 2.15 µM (active) | 2.34 µM (active) | – | – | – | – | – | O=C(O/N=C1\CCCc2ccccc21)c1ccc(F)cc1 | 2.09 µM (active) |
| 45.8 µM (active) | 11.4 µM (active) | 86.7 µM (active) | – | – | – | – | – | O=C(Nc1cccs1)Nc1ccc(Br)cc1F | > 100 µM (inactive) |
| 41.7 µM (active) | 5.4 µM (active) | 35.1 µM (active) | > 47.1 µM (inactive) | > 53 µM (inactive) | – | – | – | O=c1oc(-c2ccco2)nc2sc3c(c12)CCCC3 | > 100 µM (inactive) |
| 14.1 µM (active) | 3.39 µM (active) | 3.51 µM (active) | – | – | 20 µM (inconclusive) | inconclusive | – | Cc1cc(C)nc(NC(=O)/C=C/c2ccc(Cl)cc2Cl)c1 | 3.93 µM (active) |
| 4.38 µM (active) | 1.99 µM (active) | 5.08 µM (active) | – | – | – | – | > 260 µM (inactive) | COc1ccc(/N=C(\C)C2=C(O)c3ccccc3C2=O)cc1 | 6.43 µM (active) |
